Laboratory results reported in the supplement of paper PMC10627819.

Assays:
S. pneumoniae D39V [1] = experiment: fitness (endpoint OD595 vs no drug) (fraction); higher = more growth
In short: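 Growth medium was TSB, LB Lennox or CY, and plates were kept at 37 °C. Inoculation was at OD595 0.01 in 384-well plates, at 30 µl per well or 55 µl for S. pneumoniae. OD595 was monitored every 30 min for 14 h and background-subtracted using the first reading. Fitness is the optical density on entering stationary phase divided by the robust mean of no-drug controls, with values capped at 1.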

B. subtilis 168 = experiment: Bliss interaction score (quartile over a dose matrix) (fitness difference); higher = more antagonism (negative = synergy)
In short: (§1)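 The Bliss score takes observed fitness and subtracts the expected fitness, calculated as a product of single-drug fitness values. Those single-drug values were inferred from the combination data. Fitness is OD595 at entry into stationary phase divided by the plate's robust no-drug mean, capped at 1, and the score is summarised by quartiles across technical, biological and donor/recipient replicates.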

S. aureus DSM 20231 = experiment: as above
In short: as §1

S. aureus Newman = experiment: as above
In short: as §1

S. pneumoniae D39V [2] = experiment: as above
In short: as §1
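Wherever Bliss interaction score (quartile over a dose matrix) is given: first quartile when negative (synergy) and third quartile when positive (antagonism).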
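Wherever fitness (endpoint OD595 vs no drug) is given: OD595 on entry to stationary phase over no-drug wells; at most 1.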

CC1(C)S[C@@H]2[C@H](NC(=O)[C@H](N)c3ccc(O)cc3)C(=O)N2[C@H]1C(=O)O [Amoxicillin] + C[C@@H](O)[C@H]1C(=O)N2C(C(=O)O)=C(SCCNC=N)C[C@H]12 [Imipenem]
fitness, S. pneumoniae D39V [1], one replicate
Settings | partner 0.005 µg/mL | partner 0.01 µg/mL | partner 0.02 µg/mL
first compound 0.0008 µg/mL | 0.971 | 0.931 | 0.907
first compound 0.006 µg/mL | 0.431 | 0.412 | 0.373

fitness, S. pneumoniae D39V [1]
Settings | partner 0.005 µg/mL | partner 0.0065 µg/mL | partner 0.01 µg/mL | partner 0.013 µg/mL | partner 0.02 µg/mL | partner 0.026 µg/mL
first compound 0.0008 µg/mL | – | 0.934 | – | 0.908 | – | 0.875
first compound 0.0015 µg/mL | 0.928 | 0.927 | 0.934 | 0.919 | 0.907 | 0.859
first compound 0.003 µg/mL | 0.888 | 0.842 | 0.882 | 0.869 | 0.866 | 0.796

Settings | Bliss interaction score
B. subtilis 168 | 0.189
S. aureus DSM 20231 | -0.0413
S. aureus Newman | 0.0343
S. pneumoniae D39V [2] | -0.058

CO/N=C(\C(=O)N[C@@H]1C(=O)N2C(C(=O)[O-])=C(C[N+]3(C)CCCC3)CS[C@H]12)c1csc(N)n1 [Cefepime] + CO[C@H]1/C=C/O[C@@]2(C)Oc3c(C)c(O)c4c(O)c(c(/C=N/N5CCN(C)CC5)c(O)c4c3C2=O)NC(=O)/C(C)=C\C=C\[C@H](C)[C@H](O)[C@@H](C)[C@@H](O)[C@@H](C)[C@H](OC(C)=O)[C@@H]1C [Rifampicin]
fitness, S. pneumoniae D39V [1]
Settings | first compound 0.007 µg/mL | first compound 0.014 µg/mL | first compound 0.0155 µg/mL | first compound 0.028 µg/mL | first compound 0.031 µg/mL
partner 0.025 µg/mL | ≥ 1 | 0.992 | – | 0.93 | –
partner 0.05 µg/mL | ≥ 1 | 0.995 | – | 0.936 | –
partner 0.1 µg/mL | 0.477 | 0.47 | 0.325 | 0.222 | 0.208

fitness, S. pneumoniae D39V [1], one replicate
Settings | first compound 0.0078 µg/mL | first compound 0.0155 µg/mL | first compound 0.031 µg/mL
partner 0.025 µg/mL | 0.884 | 0.779 | 0.31
partner 0.2 µg/mL | 0 | 0 | 0

Settings | Bliss interaction score
B. subtilis 168 | 0.118
S. aureus DSM 20231 | 0.136
S. aureus Newman | 0.035
S. pneumoniae D39V [2] | 0.0513

CC1(C)S[C@@H]2[C@H](NC(=O)[C@H](N)c3ccc(O)cc3)C(=O)N2[C@H]1C(=O)O [Amoxicillin] + CC[C@H]1OC(=O)[C@H](C)[C@@H](O[C@H]2C[C@@](C)(OC)[C@@H](O)[C@H](C)O2)[C@H](C)[C@@H](O[C@@H]2O[C@H](C)C[C@H](N(C)C)[C@H]2O)[C@](C)(OC)C[C@@H](C)C(=O)[C@H](C)[C@@H](O)[C@]1(C)O [Clarithromycin]
fitness, S. pneumoniae D39V [1], one replicate
Settings | partner 0.007812 µg/mL | partner 0.01562 µg/mL | partner 0.03125 µg/mL | partner 0.0625 µg/mL | partner 0.125 µg/mL | partner 0.25 µg/mL
first compound 0.0008 µg/mL | 0.921 | 0.834 | 0.67 | 0.748 | 0.666 | 0.364
first compound 0.0015 µg/mL | 0.844 | 0.836 | 0.633 | – | – | –
first compound 0.003 µg/mL | 0.789 | 0.772 | 0.546 | – | – | –
first compound 0.006 µg/mL | – | – | – | 0.436 | 0.303 | 0.149

fitness, S. pneumoniae D39V [1]
Settings | partner 0.0625 µg/mL | partner 0.07 µg/mL | partner 0.125 µg/mL | partner 0.14 µg/mL | partner 0.25 µg/mL | partner 0.28 µg/mL
first compound 0.0008 µg/mL | – | 0.212 | – | 0.157 | – | 0.0725
first compound 0.0015 µg/mL | 0.681 | 0.24 | 0.567 | 0.133 | 0.366 | 0.0875
first compound 0.003 µg/mL | 0.684 | 0.126 | 0.551 | 0.104 | 0.357 | 0.0502

Settings | Bliss interaction score
B. subtilis 168 | 0.0461
S. aureus DSM 20231 | -0.0818
S. aureus Newman | -0.0752
S. pneumoniae D39V [2] | 0.177

CCCCCCCCCC(=O)N[C@@H](Cc1c[nH]c2ccccc12)C(=O)N[C@H](CC(N)=O)C(=O)N[C@@H](CC(=O)O)C(=O)N[C@@H]1C(=O)NCC(=O)N[C@@H](CCCN)C(=O)N[C@@H](CC(=O)O)C(=O)N[C@H](C)C(=O)N[C@@H](CC(=O)O)C(=O)NCC(=O)N[C@H](CO)C(=O)N[C@@H]([C@H](C)CC(=O)O)C(=O)N[C@@H](CC(=O)c2ccccc2N)C(=O)O[C@@H]1C [Daptomycin] + CO[C@H]1/C=C/O[C@@]2(C)Oc3c(C)c(O)c4c(O)c(c(/C=N/N5CCN(C)CC5)c(O)c4c3C2=O)NC(=O)/C(C)=C\C=C\[C@H](C)[C@H](O)[C@@H](C)[C@@H](O)[C@@H](C)[C@H](OC(C)=O)[C@@H]1C [Rifampicin]
fitness, S. pneumoniae D39V [1]
Settings | first compound 1 µg/mL | first compound 2 µg/mL | first compound 4 µg/mL
partner 0.025 µg/mL | 0.978 | ≥ 1 | ≥ 1
partner 0.05 µg/mL | 0.823 | 0.864 | 0.926
partner 0.1 µg/mL | 0.262 | 0.271 | –

S. pneumoniae D39V [1], partner 0.2 µg/mL, one replicate
Settings | fitness
first compound 1 µg/mL | 0
first compound 2 µg/mL | 0
first compound 4 µg/mL | 0

Settings | Bliss interaction score
B. subtilis 168 | -0.0667
S. aureus DSM 20231 | -0.0427
S. aureus Newman | 0.0195
S. pneumoniae D39V [2] | 0.104

CN(C)C(=O)C(CCN1CCC(O)(c2ccc(Cl)cc2)CC1)(c1ccccc1)c1ccccc1 [Loperamide] + CO[C@H]1/C=C/O[C@@]2(C)Oc3c(C)c(O)c4c(O)c(c(/C=N/N5CCN(C)CC5)c(O)c4c3C2=O)NC(=O)/C(C)=C\C=C\[C@H](C)[C@H](O)[C@@H](C)[C@@H](O)[C@@H](C)[C@H](OC(C)=O)[C@@H]1C [Rifampicin]
fitness, S. pneumoniae D39V [1]
Settings | first compound 17.14 µg/mL | first compound 34.28 µg/mL
partner 0.05 µg/mL | 0.875 | –
partner 0.2 µg/mL | 0.145 | 0.136

fitness, S. pneumoniae D39V [1], one replicate
Settings | first compound 20 µg/mL | first compound 40 µg/mL | first compound 68.57 µg/mL | first compound 80 µg/mL
partner 0.025 µg/mL | 0.92 | 0.921 | – | 0.701
partner 0.05 µg/mL | – | – | 0.833 | –
partner 0.1 µg/mL | – | – | 0.544 | –
partner 0.2 µg/mL | 0 | 0 | 0.14 | 0

Settings | Bliss interaction score
B. subtilis 168 | 0.161
S. aureus DSM 20231 | -0.0475
S. aureus Newman | 0.012
S. pneumoniae D39V [2] | -0.0733

CCCCCCCCCC(=O)N[C@@H](Cc1c[nH]c2ccccc12)C(=O)N[C@H](CC(N)=O)C(=O)N[C@@H](CC(=O)O)C(=O)N[C@@H]1C(=O)NCC(=O)N[C@@H](CCCN)C(=O)N[C@@H](CC(=O)O)C(=O)N[C@H](C)C(=O)N[C@@H](CC(=O)O)C(=O)NCC(=O)N[C@H](CO)C(=O)N[C@@H]([C@H](C)CC(=O)O)C(=O)N[C@@H](CC(=O)c2ccccc2N)C(=O)O[C@@H]1C [Daptomycin] + C[C@@H](O)[C@H]1C(=O)N2C(C(=O)O)=C(SCCNC=N)C[C@H]12 [Imipenem]
fitness, S. pneumoniae D39V [1]
Settings | partner 0.005 µg/mL | partner 0.0065 µg/mL | partner 0.01 µg/mL | partner 0.013 µg/mL | partner 0.02 µg/mL | partner 0.026 µg/mL
first compound 1 µg/mL | 0.962 | 0.886 | 0.986 | 0.808 | 0.935 | 0.716
first compound 2 µg/mL | 0.979 | 0.895 | 0.931 | 0.837 | 0.989 | 0.843
first compound 4 µg/mL | 0.902 | 0.93 | 0.884 | 0.947 | 0.897 | 0.887

Settings | Bliss interaction score
B. subtilis 168 | -0.0985
S. aureus DSM 20231 | 0.0417
S. aureus Newman | 0.0265
S. pneumoniae D39V [2] | 0.0763

C[C@H]1COc2c(N3CCN(C)CC3)c(F)cc3c(=O)c(C(=O)O)cn1c23 [Levofloxacin] + O=C1CN(/N=C/c2ccc([N+](=O)[O-])o2)C(=O)N1 [Nitrofurantoin]
fitness, S. pneumoniae D39V [1]
Settings | first compound 0.1725 µg/mL | first compound 0.2 µg/mL | first compound 0.345 µg/mL | first compound 0.4 µg/mL | first compound 0.69 µg/mL | first compound 0.8 µg/mL
partner 1.285 µg/mL | – | 0.894 | – | 0.842 | – | 0.558
partner 2 µg/mL | 0.921 | – | 0.852 | – | 0.568 | –
partner 2.57 µg/mL | – | 0.909 | – | 0.865 | – | 0.524
partner 4 µg/mL | 0.92 | – | 0.797 | – | 0.535 | –
partner 8 µg/mL | 0.799 | – | 0.688 | – | 0.38 | –

S. pneumoniae D39V [1], partner 5.14 µg/mL, one replicate
Settings | fitness
first compound 0.2 µg/mL | 0.86
first compound 0.4 µg/mL | 0.75
first compound 0.8 µg/mL | 0.317

Settings | Bliss interaction score
B. subtilis 168 | 0.0577
S. aureus DSM 20231 | 0.027
S. aureus Newman | -0.0599
S. pneumoniae D39V [2] | -0.0691
